The values below come from publication PMC2828353 (Journal of inherited metabolic disease, 2008).

Molecules are shown by their SMILES.

The target of this experiment is T1, DMGDH (His6-DMGDH, mature human dimethylglycine dehydrogenase) (Homo sapiens, UniProt Q9UI17).
T1 sequence (Q9UI17 51-866): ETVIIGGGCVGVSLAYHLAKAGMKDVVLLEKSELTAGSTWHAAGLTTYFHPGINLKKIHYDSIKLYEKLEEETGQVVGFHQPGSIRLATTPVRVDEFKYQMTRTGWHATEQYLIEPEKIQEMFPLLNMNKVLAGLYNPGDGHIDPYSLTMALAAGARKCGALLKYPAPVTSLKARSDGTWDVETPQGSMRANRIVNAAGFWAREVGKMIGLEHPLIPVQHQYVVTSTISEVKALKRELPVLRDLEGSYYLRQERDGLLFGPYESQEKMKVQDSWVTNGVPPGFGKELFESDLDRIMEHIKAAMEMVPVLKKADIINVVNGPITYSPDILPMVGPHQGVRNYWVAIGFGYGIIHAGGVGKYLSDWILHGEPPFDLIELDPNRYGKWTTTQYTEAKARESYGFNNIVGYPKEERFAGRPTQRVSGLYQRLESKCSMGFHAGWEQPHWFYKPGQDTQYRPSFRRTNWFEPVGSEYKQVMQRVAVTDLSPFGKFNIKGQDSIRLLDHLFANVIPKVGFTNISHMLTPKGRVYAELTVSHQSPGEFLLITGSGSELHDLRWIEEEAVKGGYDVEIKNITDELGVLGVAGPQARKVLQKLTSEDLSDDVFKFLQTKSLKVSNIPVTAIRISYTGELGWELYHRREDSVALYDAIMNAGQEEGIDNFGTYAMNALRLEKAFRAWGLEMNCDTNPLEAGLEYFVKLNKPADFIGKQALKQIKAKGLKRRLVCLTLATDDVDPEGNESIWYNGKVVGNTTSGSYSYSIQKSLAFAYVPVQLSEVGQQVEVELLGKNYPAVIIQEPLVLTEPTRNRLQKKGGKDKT
Put plainly: ferricenium reduction at […] nm. It counts as biochemical. The conditions noted are these: dimethylglycine as substrate, Hepes pH 7.5, 25°C.

Consider `Nc1nc2c(c(=O)[nH]1)N[C@@H](CNc1ccc(C(=O)N[C@@H](CCC(=O)O)C(=O)O)cc1)CN2` [tetrahydrofolate], for which the “% decrease in Vmax at 4 μmol/L” value is reported as ~ 25%.
